Molecular target: FAK (Homo sapiens (Human), UniProt Q05397)
Experiment: FAK Degradation Assay (Western blot, FAK/GAPDH)
Assay type: cell-based
Details: MDA-MB-231 cells, 24 h treatment, Western blot normalized to DMSO; for DC50: read-out: DC50 (half-maximal degradation concentration), FAK Degradation; for Dmax: read-out: Dmax (maximal degradation), FAK Degradation
Method: H2122 (4×10^5), MIA PaCa-2 (6×10s), or MDA-MB-231 cells (6×10^5) per well were seeded into a 6-well plate containing 2 mL of complete culture medium (RPMI-1640 for H2122 and MDA-MB-231, and DMEM/F12 for MIA PaCa-2, supplemented with 10% FBS and 1% penicillin/streptomycin). The cells were cultured overnight at 37° C. in the presence of 5% C02 before treated with a compound in a series of concentrations for 24 h. The cells were then washed with ice-cold Dulbecco's phosphate-buffered saline (DPBS). A radioimmuno-precipitation assay (RIPA) buffer was added to lyse the cells on ice for 20 min. The cells were then scrapped using cell scraper and collected in a 1.5 mL tube, which was centrifuged at 14,000 g and 4° C. for 15 min. The supernatant was collected and the total protein concentration of each sample was determined using a PIERCE™ BCA protein assay kit. The supernatant was diluted to the same protein concentration with the RIPA buffer after the BCA assay. Samples of the same protein amount were mixed with 4× a lithium dodecyl sulfate (LDS) sample buffer and boiled at 95° C. for 5 min. The denatured samples were used for electrophoresis.
For Western blot, the same volume containing ˜50 μg protein for each sample was loaded onto 4-12% Bis-Tris protein gel. The gel was run at 80 V for 0.5 h and at 120 V for 1 h. When the electrophoresis was completed, an IBLOT™ 2 gel transfer device was used to transfer FAK and GAPDH proteins at 20 V for 7 min. All the membranes were blocked in 5% nonfat dry milk in a TBST buffer at RT for 1 h and then incubated with primary antibodies (anti-FAK and anti-GAPDH) in a TBST buffer containing 5% BSA at 4° C. overnight. The membranes were washed with the TBST buffer and then incubated with secondary antibodies (goat anti-rabbit IgG H&L for FAK and goat anti-mouse IgG H&L for GAPDH) at room temperature for 1 h. Blots were visualized using an IMAGEQUANT™ LAS-4000. The chemiluminescent signals from ECL™ Western blotting reagents were captured. The band integrated intensity from each 16-bit blot image was used for quantitation. The FAK/GAPDH signal ratios of each sample were normalized using DMSO as a control and the normalized data for each compound were used to obtain its half-maximal degradation concentration (DC50) and maximal degradation (Dmax).

Chain of FAK (Q05397 whole entry): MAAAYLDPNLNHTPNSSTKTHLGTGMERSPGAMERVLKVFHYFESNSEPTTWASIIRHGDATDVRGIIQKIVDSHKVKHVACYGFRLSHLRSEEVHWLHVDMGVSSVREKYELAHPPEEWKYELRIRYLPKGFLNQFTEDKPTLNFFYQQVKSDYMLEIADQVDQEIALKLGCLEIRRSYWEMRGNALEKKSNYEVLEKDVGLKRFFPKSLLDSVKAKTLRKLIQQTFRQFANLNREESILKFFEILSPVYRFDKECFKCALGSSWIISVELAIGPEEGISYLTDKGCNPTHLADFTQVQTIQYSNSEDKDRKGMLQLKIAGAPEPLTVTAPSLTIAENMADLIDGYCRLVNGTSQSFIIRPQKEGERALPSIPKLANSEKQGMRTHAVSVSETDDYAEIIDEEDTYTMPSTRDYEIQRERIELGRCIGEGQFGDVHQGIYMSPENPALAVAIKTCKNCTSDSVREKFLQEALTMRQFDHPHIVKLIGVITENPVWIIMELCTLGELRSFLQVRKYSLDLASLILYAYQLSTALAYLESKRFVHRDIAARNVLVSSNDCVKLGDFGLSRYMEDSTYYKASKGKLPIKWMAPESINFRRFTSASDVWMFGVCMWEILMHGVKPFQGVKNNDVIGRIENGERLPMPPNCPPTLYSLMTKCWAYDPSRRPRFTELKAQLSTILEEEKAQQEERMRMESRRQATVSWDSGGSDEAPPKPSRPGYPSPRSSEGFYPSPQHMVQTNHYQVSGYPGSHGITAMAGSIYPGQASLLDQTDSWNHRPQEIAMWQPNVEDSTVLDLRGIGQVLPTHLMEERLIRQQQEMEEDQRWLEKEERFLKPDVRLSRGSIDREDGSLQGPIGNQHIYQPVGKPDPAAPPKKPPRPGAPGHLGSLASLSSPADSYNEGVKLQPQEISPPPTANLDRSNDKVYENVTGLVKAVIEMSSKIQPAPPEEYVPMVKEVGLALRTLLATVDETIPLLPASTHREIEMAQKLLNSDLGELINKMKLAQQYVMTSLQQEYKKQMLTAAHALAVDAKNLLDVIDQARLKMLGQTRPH

SMILES	DC50	Dmax
CNC(=O)c1ccccc1Nc1cc(Nc2ccc(CNC3CCN(c4ccc5c(c4)C(=O)N(C4CCC(=O)NC4=O)C5=O)CC3)cc2)ncc1C(F)(F)F (stereo not shown) [Compound A22, 2-((2-((4-(((1-(2-(2,6-Dioxopiperidin-3-yl)-1,3-dioxoisoindolin-5-yl)piperidin-4-yl)amino)methyl)phenyl)amino)-5-(trifluoromethyl}pyridin-4-yl)amino)-N-methylbenzamide]	3.5 nM	93%
CNC(=O)c1ccccc1Nc1cc(Nc2ccc(C(=O)NC3CCN(c4ccc5c(c4)C(=O)N(C4CCC(=O)NC4=O)C5=O)CC3)cc2)ncc1C(F)(F)F (stereo not shown) [Compound A21, 2-((2-((4-((1-(2-(2,6-Dioxopiperidin-3-yl)-1,3-dioxoisoindolin-5-yl)piperidin-4-yl)carbamoyl)phenyl)amino)-5-(trifluoromethyl)pyridin-4-yl)amino)-N-methylbenzamide]	1.3 nM	93%
CN(c1ccccc1CNc1cc(Nc2ccc(CN3CC(Oc4ccc5c(c4)C(=O)N(C4CCC(=O)NC4=O)C5=O)C3)cc2)ncc1C(F)(F)F)S(C)(=O)=O (stereo not shown) [Compound A18, N-(2-(((2-((4-((3-((2-(2,6-Dioxopiperidin-3-yl)-1,3-dioxoisoindolin-5-yl)oxy)-azetidin-1-yl)methyl)phenyl)amino)-5-(trifluoromethyl)pyridin-4-yl)amino)methyl)phenyl)-N-methylmethanesulfonamide]	21 nM	84%
CS(=O)(=O)c1cccc(CNc2nc(Nc3ccc4c(c3)CC(=O)N4CC3CCN(c4ccc5c(c4)C(=O)N(C4CCC(=O)NC4=O)C5=O)CC3)ncc2C(F)(F)F)c1 (stereo not shown) [Compound A23, 2-(2,6-dioxopiperidin-3-yl)-5-(4-((5-((4-((3-(methylsulfonyl)benzyl)amino)-5-(trifluoromethyl)pyrimidin-2-yl)amino)-2-oxoindolin-1-yl)methyl)piperidin-1-yl)isoindoline-1,3-dione]	1.3 nM	96%
CN(c1nccnc1CNc1nc(Nc2ccc(OCCCCCCCOc3ccc4c(c3)C(=O)N(C3CCC(=O)NC3=O)C4=O)cc2)ncc1C(F)(F)F)S(C)(=O)=O (stereo not shown) [Compound A9, N-(3-(((2-((4-((7-((2-(2,6-Dioxopiperidin-3-yl)-1,3-dioxoisoindolin-5-yl)oxy)-heptyl)oxy)phenyl)amino)-5-(trifluoromethyl)pyrimidin-4-yl)amino)methyl)pyrazin-2-yl)-N-methylmethanesulfonamide]	14 nM	100%
CNC(=O)c1ccccc1Nc1cc(Nc2ccc3c(c2)CC(=O)N3CC2CCN(c3ccc4c(c3)C(=O)N(C3CCC(=O)NC3=O)C4=O)CC2)ncc1C(F)(F)F (stereo not shown) [Compound A17, 2-((2-((1-((1-(2-(2,6-Dioxopiperidin-3-yl)-1,3-dioxoisoindolin-5-yl)piperidin-4-yl)methyl)-2-oxoindolin-5-yl)amino)-5-(trifluoromethyl)pyridin-4-yl)amino)-N-methyl-benzamide]	1.7 nM	88%
CN(c1nccnc1CNc1nc(Nc2cccc(C(=O)NC3CCN(CC4CCN(c5ccc6c(c5)C(=O)N(C5CCC(=O)NC5=O)C6=O)CC4)CC3)c2)ncc1C(F)(F)F)S(C)(=O)=O (stereo not shown) [Compound A10, N-(1-((1-(2-(2,6-Dioxopiperidin-3-yl)-1,3-dioxoisoindolin-5-yl)piperidin-4-yl)-methyl)piperidin-4-yl)-3-((4-(((3-(N-methylmethylsulfonamido)pyrazin-2-yl)methyl)amino)-5-(trifluoromethyl)pyrimidin-2-yl)amino)benzamide]	2.1 nM	98%
CN(c1ccccc1CNc1cc(Nc2ccc(C(=O)NC3CN(c4ccc5c(c4)C(=O)N(C4CCC(=O)NC4=O)C5=O)C3)cc2)ncc1C(F)(F)F)S(C)(=O)=O (stereo not shown) [Compound A20, N-(1-(2-(2,6-Dioxopiperidin-3-yl)-1,3-dioxoisoindolin-5-yl)azetidin-3-yl)-4-((4-((2-(N-methylmethylsulfonamido)benzyl)amino)-5-(trifluoromethyl)pyridin-2-yl)amino)-benzamide]	4.6 nM	79%

The remaining lines, values ahead:

DC50	Dmax	SMILES
0.84 nM	88%	CNC(=O)c1ccccc1Nc1nc(Nc2ccc3c(c2)CC(=O)N3CC2CCN(c3ccc4c(c3)C(=O)N(C3CCC(=O)NC3=O)C4=O)CC2)ncc1C(F)(F)F (stereo not shown) [Compound A38, 2-((2-((1-((1-(2-(2,6-dioxopiperidin-3-yl)-1,3-dioxoisoindolin-5-yl)piperidin-4-yl)methyl)-2-oxoindolin-5-yl)amino)-5-(trifluoromethyl)pyrimidin-4-yl)amino)-N-methylbenzamide]
0.98 nM	96%	CNC(=O)c1ccccc1Nc1cc(Nc2cc(F)c(CNC3CCN(c4ccc5c(c4)C(=O)N(C4CCC(=O)NC4=O)C5=O)CC3)cc2OC)ncc1C(F)(F)F (stereo not shown) [Compound A54, 2-((2-((4-(((1-(2-(2,6-Dioxopiperidin-3-yl)-1,3-dioxoisoindolin-5-yl)piperidin-4-yl)amino)methyl)-5-fluoro-2-methoxyphenyl)amino)-5-(trifluoromethyl)pyridin-4-yl)amino)-N-methylbenzamide]
0.96 nM	92%	CNC(=O)c1ccccc1Nc1nc(Nc2ccc(CCN3CCN(c4ccc5c(c4)C(=O)N(C4CCC(=O)NC4=O)C5=O)CC3)c(F)c2)ncc1C(F)(F)F (stereo not shown) [Compound A44, 2-((2-((4-(2-(4-(2-(2,6-dioxopiperidin-3-yl)-1,3-dioxoisoindolin-5-yl)piperazin-1-yl)ethyl)-3-fluorophenyl)amino)-5-(trifluoromethyl)pyrimidin-4-yl)amino)-N-methylbenzamide]
0.86 nM	94%	CNC(=O)c1ccccc1Nc1nc(Nc2ccc(CNC3CCN(c4ccc5c(c4)C(=O)N(C4CCC(=O)NC4=O)C5=O)CC3)c(F)c2)ncc1C(F)(F)F (stereo not shown) [Compound A37, 2-((2-((4-(((1-(2-(2,6-dioxopiperidin-3-yl)-1,3-dioxoisoindolin-5-yl)piperidin-4-yl)-amino)methyl)-3-fluorophenyl)amino)-5-(trifluoromethyl)pyrimidin-4-yl)amino)-N-methyl-benzamide]
8.1 nM	95%	CN(c1ccccc1CNc1cc(Nc2ccc(CNC3CCN(c4ccc5c(c4)C(=O)N(C4CCC(=O)NC4=O)C5=O)CC3)c(F)c2)ncc1C(F)(F)F)S(C)(=O)=O (stereo not shown) [Compound A35, N-(2-(((2-((4-(((1-(2-(2,6-Dioxopiperidin-3-yl)-1,3-dioxoisoindolin-5-yl)-piperidin-4-yl)amino)methyl)-3-fluorophenyl)amino)-5-(trifluoromethyl)pyridin-4-yl)amino)-methyl)phenyl)-N-methylmethanesulfonamide]
0.13 nM	97%	CNC(=O)c1ccccc1Nc1nc(Nc2ccc(CNC3CCN(c4ccc5c(c4)C(=O)N(C4CCC(=O)NC4=O)C5=O)CC3)cc2)ncc1C(F)(F)F (stereo not shown) [Compound A25, 2-((2-((4-(((1-(2-(2,6-dioxopiperidin-3-yl)-1,3-dioxoisoindolin-5-yl)piperidin-4-yl)amino)methyl)phenyl)amino)-5-(trifluoromethyl)pyrimidin-4-yl)amino)-N-methylbenzamide]

Source: patent US20250214967A1, “FAK DEGRADERS, PHARMACEUTICAL COMPOSITIONS, AND THERAPEUTIC APPLICATIONS” (Berrybio (Shanghai) Limited, priority 2022, published 2025)
